Measurements as given in US6585967B2, “Adhesive treatment for tinea cruris” (Closure Medical Corporation, priority 2001, dated 2003).

Assay: Observation of haloprogin / 2-octyl cyanoacrylate monomer composition after preparation
Assay type: physicochemical
Procedure: A 2-octyl cyanoacrylate monomer composition is prepared by adding 30 mg of haloprogin, an anti-fungal agent, to 2 mL of 2-octyl cyanoacrylate monomer. The mixture is sealed in a glass vial and stirred. The characteristics of the composition are observed at about one minute after preparation and later at least twenty-four hours after preparation.

SMILES: Clc1cc(Cl)c(OCC#CI)cc1Cl [haloprogin]
- premature polymerization of the monomer (stability) (30 mg haloprogin in 2 mL 2-octyl cyanoacrylate monomer, at least twenty-four hours after preparation): does not cause premature polymerization
- solubility of haloprogin in the monomer (30 mg in 2 mL 2-octyl cyanoacrylate monomer, about one minute and at least twenty-four hours after preparation): soluble in the monomer
